Experimental findings from ChEMBL document CHEMBL1139662, “Synthesis and biological investigation of new 4''-malonyl tethered derivatives of erythromycin and clarithromycin” (Bioorg Med Chem Lett, 2006) are described below.

Converted amounts (≈) assume the structure as drawn.

For test [1], the system named is Escherichia coli. In words: Inhibition of protein synthesis in Escherichia coli cell-free translational system. The format is functional.
For test [2], the system named is Escherichia coli. As to the kind of experiment: Antibacterial activity against macrolide-sensitive Escherichia coli HN818. It is filed as functional.

As for `CC[C@H]1OC(=O)[C@H](C)[C@@H](OC2C[C@@](C)(OC)[C@@H](OC(=O)CC(=O)N(C)CCN(C)C)[C@H](C)O2)[C@H](C)[C@@H](OC2O[C@H](C)C[C@H](N(C)C)[C@H]2O)[C@](C)(O)C[C@@H](C)C(=O)[C@H](C)[C@@H](O)[C@]1(C)O` (stereo partly drawn), half-maximal inhibition with Escherichia coli [1] (IC50) required 1100 nM. The molecule further registered an MIC against Escherichia coli [2] of 8 µg/mL (≈ 8.85 µM). In the case of `CC[C@H]1OC(=O)[C@H](C)[C@@H](OC2C[C@@](C)(OC)[C@@H](OC(=O)CC(=O)OCc3ccccc3)[C@H](C)O2)[C@H](C)[C@@H](OC2O[C@H](C)C[C@H](N(C)C)[C@H]2O)[C@](C)(OC)C[C@@H](C)C(=O)[C@H](C)[C@@H](O)[C@]1(C)O` (stereo partly drawn), in the test with Escherichia coli [1], the midpoint of inhibition, the IC50, lay at 1200 nM. Also, the MIC against Escherichia coli [2] was determined as 8 µg/mL (≈ 8.66 µM). For `CC[C@H]1OC(=O)[C@H](C)[C@@H](OC2C[C@@](C)(OC)[C@@H](OC(=O)CC(=O)OCc3ccccc3)[C@H](C)O2)[C@H](C)[C@@H](OC2O[C@H](C)C[C@H](N(C)C)[C@H]2O)[C@](C)(O)C[C@@H](C)C(=O)[C@H](C)[C@@H](O)[C@]1(C)O` (stereo partly drawn) the same measures were 1100 nM and 8 µg/mL (≈ 8.79 µM). The like results for `CC[C@H]1OC(=O)[C@H](C)[C@@H](OC2C[C@@](C)(OC)[C@@H](OC(=O)CC(=O)O)[C@H](C)O2)[C@H](C)[C@@H](OC2O[C@H](C)C[C@H](N(C)C)[C@H]2O)[C@](C)(O)C[C@@H](C)C(=O)[C@H](C)[C@@H](O)[C@]1(C)O` (stereo partly drawn) were, in that order, 3700 nM and 128 µg/mL (≈ 156 µM). `CC[C@H]1OC(=O)[C@H](C)[C@@H](O[C@H]2C[C@@](C)(OC)[C@@H](O)[C@H](C)O2)[C@H](C)[C@@H](O[C@@H]2O[C@H](C)C[C@H](N(C)C)[C@H]2O)[C@](C)(OC)C[C@@H](C)C(=O)[C@H](C)[C@@H](O)[C@]1(C)O` [CLARITHROMYCIN] showed an MIC with Escherichia coli [2] of 2 µg/mL (≈ 2.67 µM). On to `CC[C@H]1OC(=O)[C@H](C)[C@@H](O[C@H]2C[C@@](C)(OC)[C@@H](O)[C@H](C)O2)[C@H](C)[C@@H](O[C@@H]2O[C@H](C)C[C@H](N(C)C)[C@H]2O)[C@](C)(O)C[C@@H](C)C(=O)[C@H](C)[C@@H](O)[C@]1(C)O` [ERYTHROMYCIN], for which half-maximal inhibition in the test on Escherichia coli [1] (IC50) was put at 900 nM. This molecule showed an MIC against Escherichia coli [2] of 2 µg/mL (≈ 2.73 µM). The molecule `CC[C@H]1OC(=O)[C@H](C)[C@@H](OC2C[C@@](C)(OC)[C@@H](OC(=O)CC(=O)O)[C@H](C)O2)[C@H](C)[C@@H](OC2O[C@H](C)C[C@H](N(C)C)[C@H]2O)[C@](C)(OC)C[C@@H](C)C(=O)[C@H](C)[C@@H](O)[C@]1(C)O` (stereo partly drawn) came in with an IC50 in the test on Escherichia coli [1] of 3900 nM. Also, the lowest concentration to inhibit growth in the test with Escherichia coli [2] (MIC) was 128 µg/mL (≈ 153 µM).

One may read the IC50 as the concentration at which inhibition is half-maximal. As a reminder, the MIC is the lowest concentration found to suppress growth. Low values mean greater potency, high ones weaker potency.
